Experimental data from the supplement of paper PMC10307832.

Assays:
Assay in all cases: relative viability (nuclei count vs DMSO), 5 days (fraction); higher = more cells survive
[1] = compound: C1CSC2=C(C(=O)N1)SC3=C2C=C(C=C3)O [kb NB 142-70] + CC(=O)Nc1cccc(-n2c(=O)n(C3CC3)c(=O)c3c(Nc4ccc(I)cc4F)n(C)c(=O)c(C)c32)c1 [Trametinib] (partner 0.02 µM)
Outline: (§1)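 Each reported value is a median over duplicate plates. It expresses relative viability: treated-well nuclei count divided by vehicle-well nuclei count. Lung cancer cell lines in 1536-well plates were dosed by pin tool a day after seeding, alone with one drug or with a fixed anchor-drug dose plus five library-drug doses (not always all listed) in √10 steps, and nuclei were counted after 5 days.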

[2] = compound: C1CSC2=C(C(=O)N1)SC3=C2C=C(C=C3)O [kb NB 142-70] + C[C@]1(O)C[C@@H](c2nc(-c3ccc4ccc(-c5ccccc5)nc4c3)c3c(N)nccn32)C1 [Linsitinib] (partner 1 µM)
Outline: as §1

[3] = compound: NCC(=O)Nc1ccc(-n2nc(C(F)(F)F)cc2-c2ccc3c(ccc4ccccc43)c2)cc1 + N=C(N)NC(=N)NCCc1ccccc1 [Phenformin] (partner 250 µM)
Outline: as §1

[4] = compound: NCC(=O)Nc1ccc(-n2nc(C(F)(F)F)cc2-c2ccc3c(ccc4ccccc43)c2)cc1 + Nc1nc2[nH]cc(CCc3ccc(C(=O)N[C@@H](CCC(=O)O)C(=O)O)cc3)c2c(=O)[nH]1 [Pemetrexed] (partner 0.2 µM)
Outline: as §1

| Cell Line | relative viability ([1]; first compound 0.1 µM) | relative viability ([1]; first compound 1 µM) | relative viability ([1]; first compound 3.162 µM) | relative viability ([2]; first compound 0.1 µM) | relative viability ([2]; first compound 1 µM) | relative viability ([2]; first compound 3.162 µM) | relative viability ([3]; first compound 0.02 µM) | relative viability ([3]; first compound 0.06325 µM) | relative viability ([3]; first compound 0.2 µM) | relative viability ([3]; first compound 0.6325 µM) | relative viability ([3]; first compound 2 µM) | relative viability ([4]; first compound 0.02 µM) | relative viability ([4]; first compound 0.06325 µM) | relative viability ([4]; first compound 0.2 µM) | relative viability ([4]; first compound 0.6325 µM) | relative viability ([4]; first compound 2 µM) |
| --- | --- | --- | --- | --- | --- | --- | --- | --- | --- | --- | --- | --- | --- | --- | --- | --- |
| NCI-H1437 | 0.601 | 0.704 | 0.502 | 1.15 | 1.1 | 1.07 | 0.247 | 0.302 | 0.331 | 0.308 | 0.339 | 0.309 | 0.335 | 0.35 | 0.316 | 0.308 |
| LU99A | 0.559 | 0.598 | 0.467 | 0.519 | 0.518 | 0.341 | 0.76 | 0.877 | 0.908 | 0.824 | 0.921 | 0.182 | 0.153 | 0.202 | 0.164 | 0.168 |
| HCC-827 | 0.539 | 0.53 | 0.395 | 0.921 | 0.992 | 0.902 | 0.397 | 0.431 | 0.406 | 0.385 | 0.385 | 0.217 | 0.211 | 0.277 | 0.251 | 0.254 |
